Consider two molecules from article PMC6264390, “Design, Synthesis and Structure-activity Studies of Rhodanine Derivatives as HIV-1 Integrase Inhibitors” (Molecules, 2010).

As a reminder, the melting point is the temperature of the solid-liquid transition. Usually GI50 stands for the concentration at which growth is held to half of that of the control. The IC50 is the concentration at which inhibition is half-maximal.

Each structure is given as a SMILES string. Bounds are passed on as bounds.

Data set [1] deals with HT 29 colon cancer cell line. Nature of the data set: MTT cytotoxicity assay, HT 29. It counts as cell-based. As to conditions: Homo sapiens, 72 h. The source says: (§1) Human melanoma cell line MDA-MB 435, pancreatic cancer cell line Panc-1, and colon cancer cell line HT 29 were purchased from the American Type Cell Culture (Manassas, VA, USA). HCT 116 p53^+/+ and HCT 116 p53^−/^− were kindly provided by Dr. Bert Vogelstein, Johns Hopkins Medical Institutions (Baltimore, MD, USA). HCT 116 p53^+/+, HCT116 p53^−/^−, and HT 29 cells were maintained as monolayer cultures in RPMI 1640 supplemented with 10% fetal bovine serum (FBS; Gemini-Bioproducts, Woodland, CA, USA) and 2 mmol/L L-glutamine at 37 °C in a humidified atmosphere of 5% CO2. Similarly, MDA-MB 435 and Panc-1 cells were maintained in Dulbecco’s modified Eagle’s medium (DMEM) supplemented with 10% fetal bovine serum as described above. […]
(§2) Cytotoxicity was assessed by 3-(4,5-dimethylthiazol-2-yl)-2,5-diphenyltetrazolium bromide (MTT) assay as previously described. […]
(§3) After 72 h exposure to the test compounds, MTT solution (5 mg/mL; 20 μL) was added to each well and cells were incubated for 4 h at 37 °C. […] The absorbance intensity was measured at 570 nm against appropriate blank controls using a microplate reader (Molecular Devices, Sunnyvale, CA, USA). […]
(In general: Tetrazolium assays rely on reduction of a dye to a coloured formazan, in cell work by metabolically active cells.)

In the next data set the test system is HCT 116 p53^−/^−. Kind of data set: MTT cytotoxicity assay, HCT 116 p53−/−. In kind it is cell-based. The settings on record: Homo sapiens, 72 h.
Description: as §1, §2, §3

In a further data set the test system is HCT 116 p53^+/+. Kind of data set: MTT cytotoxicity assay, HCT 116 p53+/+. It counts as cell-based. The settings on record: Homo sapiens, 72 h.
Description: as §1, §2, §3

Data set [2] has as its target T1, human apurinic/apyrimidinic endonuclease 1 (APE1) (Homo sapiens, UniProt P27695).
T1 construct: His; made in house
Nature of the data set: APE1 inhibition assay. In kind it is biochemical. As to conditions: read-out: Inhibition of APE1 catalytic activity IC50. In short, it runs like this: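 His-tagged APE1 (0.05 nM) preincubated with compound 10 min at 30 °C in MOPS pH 7.2 buffer with 7.5 mM MnCl2 and 10% DMSO, then 200 nM 5′-32P-labelled abasic (THF) duplex added for 10 min. Incision products resolved on denaturing gel, phosphorimaged; IC50 from %I versus log concentration.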

The subject of data set [3] is MDA-MB 435 melanoma cell line. Kind of data set: MTT cytotoxicity assay, MDA-MB 435. In kind it is cell-based. The settings on record: Homo sapiens, 72 h, read-out: GI50, MDA-MD435.
Description: as §1, §2, §3

T1 sequence (P27695 whole entry): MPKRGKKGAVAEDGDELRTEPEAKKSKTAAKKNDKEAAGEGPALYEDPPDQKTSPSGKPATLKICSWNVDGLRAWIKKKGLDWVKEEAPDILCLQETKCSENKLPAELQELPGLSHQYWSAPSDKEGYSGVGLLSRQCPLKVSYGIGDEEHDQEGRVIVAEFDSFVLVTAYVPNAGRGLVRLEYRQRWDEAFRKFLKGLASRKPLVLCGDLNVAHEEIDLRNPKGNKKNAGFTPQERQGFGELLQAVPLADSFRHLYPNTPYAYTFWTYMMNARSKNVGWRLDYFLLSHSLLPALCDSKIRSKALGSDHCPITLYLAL

Take `O=C(Nc1ccc(Cl)cc1)C(=S)NN1C(=O)C(=Cc2ccc([N+](=O)[O-])o2)SC1=S` [Compound 13, N-(4-chlorophenyl)-2-{5-[(5-nitro-2-furyl)methylene]-4-oxo-2-thioxo-1,3-thiazolidin-3-yl}amino-2-thioxoacetamide]: the melting point lay in the range of 159 to 160 °C. The 50% growth inhibitory concentration (GI50) in data set [1] was greater than 10 µM. This molecule also registered a GI50 with HCT 116 p53^−/^− of 6.5 ± 1.2 µM. This molecule displayed a GI50 with HCT 116 p53^+/+ greater than 10 µM. In data set [2], the IC50 was determined as 93 µM. The GI50 in data set [3] amounted to 13.5 ± 5.2 µM.
On to `COc1ccc(NC(=O)C(=S)NN2C(=O)C(=Cc3ccc([N+](=O)[O-])o3)SC2=S)cc1` [Compound 17, N-(4-methoxyphenyl)-2-{5-[(5-nitro-2-furyl)methylene]-4-oxo-2-thioxo-1,3-thiazolidin-3-yl}amino-2-thioxoacetamide], for which the melting point was in the range of 187 to 188 °C. Also, in data set [1], halving of growth (GI50) required 9.6 µM. Further, the GI50 with HCT 116 p53^−/^− stood at 6.1 ± 2.2 µM. In the data set on HCT 116 p53^+/+, this molecule displayed a GI50 of 5.1 ± 0.8 µM. Besides, the IC50 in data set [2] is greater than 100 µM. Moreover, in data set [3], the GI50 stood at 9 ± 1.1 µM.
